Tests used:
COX-2 pathway = assay: Arachadonic acid induced PGE2 release in A549 cells (EIA); assay type: cell-based, human
Excerpt: COX-2 is the key enzyme regulating the production of prostaglandins, which act as central mediators of inflammation. […] It is well documented COX-2 pathway inhibitors were regarded as promising nonsteroidal anti-inflammatory drugs (NSAIDs). So we decided to test the ability of RSCL-0409 to block the COX-2 pathway to substantiate our earlier mRNA observation. For that purpose, we chose A549 cells, a human lung cancer cell line where COX-2 is activated by AA in serum-free stimulation established by Yao et al for 12 hr. (Yao J C, Duan W G, Yun Y, Liu de Q, Yan M, Jiang Z Z, Zhang L Y. Screening method for nonsteroidal antiinflammatory drugs based on the cyclooxygenase 2 pathway activated by serum-free stimulation in A549 cells. Yakugaku Zasshi. 2007; 127: 527-32.) In order to determine the efficiency of our molecule, we have incorporated two known COX-2 NSAIDs-Piroxicam and Ibuprofen for comparison purposes. A549 cells (50×10^4 cells/well) in serum free medium were pretreated with different concentrations (10 μM, 5 μM, 2.5 μM, and 1.25 μM) of the NSAIDs and RSCL-0409 for 30 min. Then the cells were incubated with AA ([…]) for another 30 min. Prostaglandin E2 (PGE2), a metabolite of AA through the Cox pathway, was assayed in an enzyme immunoassay (EIA) kit from R&D systems.

IL-6 mRNA = IL-6 mRNA expression in LPS stimulated THP-1 cells (real-time PCR); assay type: cell-based, human; conditions: THP-1, LPS 250 ng/ml 1 hr
Method: To determine whether the suppressive effect of RSCL-0409 on the cytokine production occurs at mRNA expression level, quantitative real-time PCR was used to examine TNF-α and IL-6 mRNA expression in THP-1 cells stimulated with LPS. THP-1 cells (3×10^6 cells/well) were stimulated with 250 ng/ml LPS in the presence or absence of RSCL-0409 at indicated concentrations for the 1 hr. Total RNA was isolated from these cells and cDNA was synthesized. LPS treated cells acted as positive control. All quantitative real-time PCR (TaqMan™) primers and probes were obtained from Applied Biosystems (ABI), Weiterstadt, Germany. For detection of TNF-α, pre-developed assay reagents (Universal master mix as obtained from Applied Biosystems included all reagents including Taq-polymerase apart from specific primers and probes) were used. The PCR was performed utilizing 1 μl cDNA per reaction in triplicates of 25 μl volume on an ABI 7500 Realtime PCR machine using a 2-step PCR protocol.
Quantization of mRNA was performed using the comparative threshold cycle method and analysed using standard software and expressed in fold change. The fold change of TNF-α (FIG. 5a) and IL-6 (FIG. 5b) mRNA in treated cells over control was obtained after correction for the amount of β-actin. […] The expression levels of both TNF and IL-6 decreased following 1 hr pretreatment with RSCL-0409 in the presence of LPS. […]

TNF = assay: Pre-screen for TNF inhibition activity of synthesized molecules (Table 1); assay type: cell-based
TNF-α [1] = assay: LPS induced TNF-α release in human PBMC; assay type: cell-based; conditions: PBMC isolated from human blood
Excerpt: In order to evaluate the ability of RSCL-0409 to inhibit LPS induced TNF-α secretion in a physiological scenario, the present invention has tested the same in PBMC isolated from human blood (FIG. 3). […] The TNF levels were not detectable in PBMCs without LPS and with RSCL-0409 treatment alone, indicating its specificity in LPS induced TNF-α through a TLR mediated process. ***P<0.001 value is for LPS treated vs. RSCL-0409 treated.

TNF-α [2] = assay: LPS induced TNF-α secretion in THP-1 monocytes, dose dependence (ELISA); assay type: cell-based, human; conditions: THP-1, LPS 250 ng/ml, 100, 50, 10 and 1 μM, 24 hr
Method: To confirm whether the inhibitory effect of RSCL-0409 is dose-dependent, the present invention has studied the ability of RSCL-0409 to inhibit TNF-α secretion from LPS (250 ng/ml) induced THP-1 monocytes (FIG. 2a).
THP-1, 2×10^5 cells/well was plated in 96-well plate. The cells were pretreated with RSCL-0409 at various concentrations (100 μM, 50 μM, 10 μM and 1 μM) 1 hr prior to LPS stimulation. As a control group, cells were treated with LPS alone and cells treated with RSCL-0409 alone were used. TNF-α secretion was estimated in the culture supernatants following 24 hr LPS stimulation using Duoset ELISA detection Kit (R&D systems, MN, USA). *P<0.05, ***P<0.001 values are comparisons for LPS treated vs. RSCL-0409 treated, NS indicates not significant.

TNF-α [3] = assay: TNF response to increasing concentration of LPS in THP-1 cells; assay type: cell-based, human; conditions: LPS 1000 ng/ml
Method: The present invention has also conducted experiments to check the ability of RSCL-0409 to inhibit LPS induced TNF-α secretion from THP-1 cells, wherein the studies involved the stimulation of THP-1 cells with increasing concentrations of LPS (62.5 ng/ml to 1000 ng/ml) with and without pre-treatment of cells with different concentrations of RSCL-0409.

RAW264.7 cells = assay: LPS induced nitric oxide (NO) release in RAW 264.7 cells (Griess reaction); assay type: cell-based; conditions: RAW264.7, LPS 250 ng/ml
Method: RAW264.7 cells provide an excellent model for evaluations of potential inhibitors on the pathway leading the induction of iNOS and NO production. Nitric oxide production was determined in RAW264.7 cells from the National Center of Cell Science (NCCS, Pune) cultured in color-free DMEM with standard supplements by measuring the amount of nitrite from cell culture supernatant. RAW264.7 cells (5×10^4 per well) were stimulated for 24 hr with or without LPS (250 ng/ml) in the absence of presence of the RSCL-0409. Nitrite was then measured using the Griess reaction. 100 μl of cell culture supernatant was reacted with 100 μl of Griess reagent followed by spectrophotometric measurement at 550 nm. Nitrite concentrations in the supernatants were determined by comparison with a sodium nitrite standard curve. Alongside RSCL-0409 we also used known strong antioxidants (Vit C, Ascorbic acid, Catechin and Trolox) which inhibit NO to comparative antioxidant efficiency.

COc1ccc(OC2OC3COC(c4ccccc4)OC3C(OC3OC(COC(=O)CCC(C)=O)C(OC(=O)CCl)C(OC(C)=O)C3OC(C)=O)C2NC(=O)C(Cl)(Cl)Cl)cc1 [RSCL-0409, p-Methoxy phenyl-O-(2,3-di-O-acetyl-4-O-chloroacetyl-6-O-levulinoyl-β-D-glucopyranosyl)-(1-3)-2-deoxy-2-trichloroacetamido-4,6-O-benzylidene-α-D-glucopyranoside]
PGE2 release (COX-2 pathway; A549 cells, 10, 5, 2.5 and 1.25 μM, AA induced): concentration dependent inhibition of PGE2 release | concentration still effective on PGE2 release (COX-2 pathway; A549 cells, AA induced): 1.25 µM | inhibition of PGE2 in comparison with the NSAIDs (COX-2 pathway; at all the concentrations used): better than Piroxicam | IL-6 mRNA expression (IL-6 mRNA): The same was observed with IL-6 also in a concentration dependent manner | % TNF Inhibition (TNF; 1 uM): 0% | % TNF Inhibition (TNF; 10 uM): 32% | % TNF Inhibition (TNF; 50 uM): 81% | % TNF Inhibition (TNF; 100 uM): 91% | LPS induced TNF-α secretion (TNF-α [1]): inhibitory effects similar to that seen in THP-1 cells | LPS induced TNF-α secretion (TNF-α [2]): inhibited by RSCL-0409 in a concentration dependent manner | concentration inhibiting LPS induced TNF-α secretion (as low as) (TNF-α [3]): 10 µM | anti-oxidant activity versus reference antioxidants (Vit C, Ascorbic acid, Catechin and Trolox) (RAW264.7 cells): far more potent | NO secretion induced by LPS (RAW264.7 cells; 24 hr): inhibited by RSCL-0409 in a concentration dependent manner

From patent publication US20090215710A1, “CARBOHYDRATE BASED TOLL-LIKE RECEPTOR (TLR) ANTAGONISTS” (RELIANCE LIFE SCIENCES PVT. LTD., priority 2007, published 2009)
